Laboratory results as given in US4638005A, “Monoquaternized pyrazinium compounds and their use as electron carriers in photosynthetic processes” (The Coca-Cola Company, priority 1983, dated 1987).

How the values were obtained:
[1] = Polarographic half-wave potential (first wave reduction); type: physicochemical; details: 0.1 M phosphate buffer pH 7.55, 25° C.
Text: Sci., 65, 1471(1976). Therefore, it was of interest to measure polarographically the half-wave potentials of the several pyrazinium salts under consideration, to determine the possible effect of structure upon their redox potentials.

nitrogenase [2] = biological target: T1, nitrogenase (Azotobacter vinelandii, UniProt P00459); assay: Chloroplast-coupled evolution of hydrogen by nitrogenase in the absence of substrate; type: biochemical; details: Table II, hydrogen evolution; for ACTIVITY (nmoles H2 /mg protein/min): no nitrogen or acetylene, synthetic carriers 2 mM, ferredoxin 0.2 mM
T1 construct: the nitrogenase sample was prepared from a culture of Azotobacter vinelandii; endogenous in cells; host or cells: Azotobacter vinelandii culture; French press lysate, 10,000 x g supernatant (crude)
Description: (§1) For the bioassay, the nitrogenase sample was prepared from a culture of Azotobacter vinelandii grown to a cell density of about 1 g/l. The cells harvested by centrifugation were broken in a French press, cell debris spun off at 10,000 XG for 1 hr., and the supernatant containing 40 mg/ml protein was used in the bioassay experiments. […] chloroplasts from spinach leaves as described by Benemann were also used. The synthetic carriers were tested in aqueous solutions at concentrations of 2 mM, while the standard, clostridial ferredoxin, was used in 0.2 mM aqueous solution. The concentrations of carriers in the assay mixtures were chosen so as to guarantee carrier saturation conditions. Thus, the observed differences in rates of ethylene production from the substrate acetylene were assigned directly to variations in the efficiency of electron transfer from the illuminated chloroplast to the nitrogenase. The results obtained for acetylene reduction (nitrogen fixation) using the pyrazinium compounds of Examples 1 through 42 are summarized in Table I and are expressed as nmoles of ethylene produced per mg protein per minute.
It has been recognized for sometime the connection existing between hydrogen metabolism and nitrogen fixation. […] When nitrogenase was purified extensively, as mentioned above, it became apparent that in addition to nitrogen, nitrogenase also catalyzed the reduction of protons. The evolution of hydrogen is particularly active in the absence of the normal substrates for nitrogenase (nitrogen, acetylene, cyanide, azide, etc.), and is dependent upon a strong reductant and adenosine triphosphate hydrolysis. Since hydrogen evolution is not inhibited by CO, but reduction of nitrogen and other substrates is, the reduction of protons presumably occurs at a site other than the site of nitrogen reduction, H. C. Winter, et. al., Ann Rev. Biochem, 45, 409 (1976). Accordingly, with the same bioassay system and with exclusion of nitrogen, and acetylene, the activity of the pyrazinium compounds to act as carriers for production of hydrogen has been determined.
The results of this study, which are summarized in Table II, indicate that the pyrazinium salts that mediate the reduction of acetylene with electrons from the photoexcited chloroplast, are also mediating the reduction of protons by the nitrogenase.

nitrogenase [3] = biological target: T1, nitrogenase; assay: Chloroplast-coupled reduction of acetylene to ethylene by nitrogenase (electron carrier bioassay of Benemann); type: biochemical; details: for ACTIVITY RELATIVE TO FERREDOXIN (%) / ACTIVITY (nmoles C2 H4 /mg protein/min): Table I; for ACTIVITY RELATIVE TO FERREDOXIN (%): acetylene reduction to ethylene; for ACTIVITY (nmoles C2 H4 /mg protein/min): illuminated spinach chloroplasts, synthetic carriers 2 mM, clostridial ferredoxin 0.2 mM; for ETHYLENE FORMATION % Ferredoxin Activity: Table III ranking; for % FERREDOXIN ACTIVITY: Table IV, acetylene reduction
Description: The activity of the pyrazinium compounds as electron carriers in an illuminated photocouple process using isolated chloroplasts and the reductive enzyme catalyst nitrogenease has been determined using the bioassay of Benemann, et al., Proc. Natl. Acad. Sci. USA, 64, 1079(1969). In this method, the carrier activity is measured as a function of nitrogenase reduction of acetylene to ethylene, the rate of production of ethylene being the direct measurement.
as §1

[4] = cited from earlier work

T1 sequence (P00459 2-290 limits assumed): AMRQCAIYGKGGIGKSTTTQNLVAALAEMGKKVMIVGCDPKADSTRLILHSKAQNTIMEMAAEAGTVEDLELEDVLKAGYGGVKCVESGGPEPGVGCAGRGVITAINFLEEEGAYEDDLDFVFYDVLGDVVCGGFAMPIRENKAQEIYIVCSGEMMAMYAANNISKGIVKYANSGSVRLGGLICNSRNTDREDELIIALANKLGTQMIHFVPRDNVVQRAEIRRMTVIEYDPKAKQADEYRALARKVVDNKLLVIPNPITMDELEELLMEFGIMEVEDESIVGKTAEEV

Molecule | E1/2 vs. SCE (mV) [1] | ACTIVITY RELATIVE TO FERREDOXIN (%) (nitrogenase [2]) | ACTIVITY (nmoles H2 /mg protein/min) (nitrogenase [2]) | ACTIVITY RELATIVE TO FERREDOXIN (%) (nitrogenase [3]) | ACTIVITY (nmoles C2 H4 /mg protein/min) (nitrogenase [3]) | ETHYLENE FORMATION % Ferredoxin Activity (nitrogenase [3]) | % FERREDOXIN ACTIVITY (nitrogenase [3]) | midpoint potential ([4]; natural electron carriers for the nitrogenase) | half-wave potential ([4]; pH 7.52)
C[n+]1ccnc2ccccc21 [Compound 5200] | -433 mV | 0% | 0.0 nmoles H2 /mg protein/min | 0% | 0.0 nmoles C2 H4 /mg protein/min | 0% | 0% |  | 
C[n+]1ccnc(C(CC(O)CO)CC(O)CO)c1 (centres unmarked) [Compound 1700, 1-Methyl-3-[4-(1,2,6,7-tetrahydroxyheptyl)]pyrazinium iodide] | -715 mV | 62% | 16.6 nmoles H2 /mg protein/min | 33% | 4.5 nmoles C2 H4 /mg protein/min | 33% | 33% |  | 
Cc1c[n+](C)cc(CO)n1.[I-] [Compound 400, 1-Methyl-3-hydroxymethyl-5-methylpyrazinium iodide] | -738 mV | 74% | 19.7 nmoles H2 /mg protein/min | 26% | 3.5 nmoles C2 H4 /mg protein/min | 26% | 26% |  | 
C[n+]1ccnc(CS(C)(=O)=O)c1 [Compound 4700] | -611 mV | 5% | 1.4 nmoles H2 /mg protein/min | 5% | 0.7 nmoles C2 H4 /mg protein/min | 5% | 5% |  | 
C[n+]1ccnc(S(=O)(=O)[O-])c1 [Compound 2000] | -573 mV | 100% | 26.6 nmoles H2 /mg protein/min | 61% | 8.3 nmoles C2 H4 /mg protein/min | 61% | 61% |  | 
C[n+]1ccnc(C(C)(C)[N+](=O)[O-])c1.[I-] [Compound 3700, 1-Methyl-3-(1-nitroisopropyl)pyrazinium iodide] | -701 mV | 32% | 8.6 nmoles H2 /mg protein/min | 31% | 4.2 nmoles C2 H4 /mg protein/min | 31% | 31% |  | 
C[n+]1ccnc(CCC(O)CO)c1.[I-] (centres unmarked) [Compound 1500, 1-Methyl-3-(3,4-dihydroxybutyl)pyrazinium iodide] | -683 mV | 86% | 22.9 nmoles H2 /mg protein/min | 41% | 5.5 nmoles C2 H4 /mg protein/min | 41% | 41% |  | 
Clostridial Ferredoxin: the standard, clostridial ferredoxin; natural protein electron carrier, used in 0.2 mM aqueous solution (AYKIADSCVSCGACASECPVNAISQGDSIFVIDADTCIDCGNCANVCPVGAPVQE; UniProt P00195 2-56, looked up) [reference compound] | -570 mV | 100% | 26.7 nmoles H2 /mg protein/min | 100% | 13.5 nmoles C2 H4 /mg protein/min | 100% | 100% | -570 mV | -570 mV
C[n+]1ccnc(CCO)c1.[I-] [Compound 300, 1-Methyl-3-(2-hydroxyethyl)pyrazinium iodide] | -683 mV | 30% | 8.1 nmoles H2 /mg protein/min | 41% | 5.5 nmoles C2 H4 /mg protein/min | 41% | 41% |  | 
